Assay results taken from US11066447B2, “Aureobasidium derivatives and methods of synthesis” (AureoGen Biosciences, Inc., priority 2016, dated 2021).
≈ marks a conversion by molar mass, not a printed value. Read-outs that look alike come from different tables or passages of the source. Numbered stars: 1 amine (or outer) side, 2 acyl side, 3 side chain; on linkers, the order of the positions; unused ones are H or OH. Square brackets hold non-standard residues; d marks the D form. Peptide text beside a SMILES is read from it. ξ: configuration not given here. X26 = CC1CCN(c2cnc(-c3cccc(C[C@@H](C(=O)[*:2])N(C)[*:1])c3)cn2)CC1; X24 = CN([C@@H](Cc1cccc(-c2ccnc(N3CCOCC3)c2)c1)C(=O)[*:2])[*:1]; X20 = CN([C@@H](Cc1cccc(-c2cnn(C3CCCC3)c2)c1)C(=O)[*:2])[*:1]; X16 = CC(C)c1cc(-c2cccc(C[C@@H](C(=O)[*:2])N(C)[*:1])c2)ccn1; X14 = CN([C@@H](Cc1cccc(-c2ccc3ncccc3c2)c1)C(=O)[*:2])[*:1]; X18 = CN([C@@H](Cc1cccc(-c2ccc3ccncc3c2)c1)C(=O)[*:2])[*:1]; Hmp(2R,3S) = CC[C@H](C)[C@@H](O)C(=O)O; NMeVal(β-OH) = CN[C@H](C(=O)O)C(C)(C)O; X6 = CCC(C)[C@@H](O[*:1])C(=O)[*:2]; Ile(3ξ) = CCC(C)[C@H](N)C(=O)O; NMeV = CN[C@H](C(=O)O)C(C)C

What was measured:
[1] = test system: C. albicans MMX 2000 ATCC 10231; assay: MIC assay (CLSI microdilution); assay type: cell-based; settings: Candida albicans, ATCC10231, RPMI plus 0.002% Tween-80; read-out: MIC
[2] = test system: C. neoformans MMX 0634 ATCC 90112; assay: MIC assay (CLSI microdilution); assay type: cell-based; settings: Cryptococcus neoformans, ATCC90112, RPMI plus 0.002% Tween-80; read-out: MIC
[3] = test system: C. parapsilosis MMX 2323 ATCC 22019; assay: MIC assay (CLSI microdilution); assay type: cell-based, Candida parapsilosis; settings: read-out: MIC
Summary of the method: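 Broth microdilution MIC testing of Candida parapsilosis ATCC 22019 followed CLSI methods in RPMI-1640, with or without 0.002% Tween-80. Yeast grown 48 hours at 35° C on Sabouraud dextrose agar was suspended to a 0.5 McFarland standard and diluted 1:100 to roughly 0.5-2.5×10^3 CFU/mL. The MIC was the lowest concentration preventing visible growth.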

[4] = test system: A. flavus MMX 5948; assay: MIC/MEC assay (CLSI microdilution); assay type: cell-based; settings: Aspergillus flavus, MMX5948, 48 h; for minimal effective concentration: RPMI plus 0.002% Tween-80; for MIC: RPMI plus 0.002% Tween-80, read-out: MIC
Summary of the method: (§1)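 CLSI microdilution; RPMI-1640 + 0.002% Tween-80 (MMX 5280 additionally without Tween). Two-fold dilution series, compounds from EtOH stocks, amphotericin B from DMSO, tested 0.06-64 μg/mL. Inoculum ~0.2-2.5×10^4 CFU/mL final.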

[5] = test system: A. fumigatus MMX 5944; assay: MIC/MEC assay (CLSI microdilution); assay type: cell-based; settings: Aspergillus fumigatus, MMX5944, 48 h; for minimal effective concentration: RPMI plus 0.002% Tween-80; for MIC: RPMI plus 0.002% Tween-80, read-out: MIC
Summary of the method: as §1

[6] = test system: A. fumigatus MMX 6781 ATCC MYA-4609; assay: MIC/MEC assay (CLSI microdilution); assay type: cell-based
Summary of the method: as §1

[7] = test system: A. fumigatus MMX 6782 ATCC 13073; assay: MIC/MEC assay (CLSI microdilution); assay type: cell-based; settings: Aspergillus fumigatus, ATCC13073, 48 h; for minimal effective concentration: RPMI plus 0.002% Tween-80, read-out: MEC; for MIC: RPMI plus 0.002% Tween-80, read-out: MIC
Summary of the method: as §1

[8] = test system: A. fumigatus from Aureogen; assay: MIC/MEC assay (CLSI microdilution); assay type: cell-based; settings: Aspergillus fumigatus, 48 h; for minimal effective concentration: RPMI plus 0.002% Tween-80; for MIC: RPMI plus 0.002% Tween-80, read-out: MIC
Summary of the method: as §1

[9] = test system: A. niger MMX 0624 ATCC 16888; assay: MIC/MEC assay (CLSI microdilution); assay type: cell-based; settings: Aspergillus niger, ATCC16888, 48 h; for minimal effective concentration: RPMI plus 0.002% Tween-80, read-out: MEC; for MIC: RPMI plus 0.002% Tween-80, read-out: MIC
Summary of the method: as §1

[10] = test system: A. fumigatus MMX 5280 ATCC MYA-3626; assay: MIC/MEC assay (CLSI microdilution); assay type: cell-based, Aspergillus fumigatus; settings: Aspergillus fumigatus, 48 h
Summary of the method: as §1

[11] = ATCC22019, RPMI plus 0.002% Tween-80
[12] = RPMI plus 0.002% Tween-80, 48 hr
[13] = RPMI plus 0.002% Tween-80, read-out: MEC
[14] = RPMI plus 0.002% Tween-80, read-out: MIC
[15] = Without Tween-80, read-out: MEC
[16] = Without Tween-80, read-out: MIC
[17] = Aspergillus fumigatus, 48 h, RPMI plus 0.002% Tween-80, read-out: MIC
[18] = Aspergillus fumigatus, RPMI plus 0.002% Tween-80, 48 hr

Row | Compound | MIC [1] [µg/mL] | MIC [2] [µg/mL] | MIC [3, 11] [µg/mL] | MIC ([3]; ATCC22019, Without Tween-80) [µg/mL] | minimal effective concentration [4] [µg/mL] | MIC [4] [µg/mL] | minimal effective concentration [5] [µg/mL] | MIC [5] [µg/mL] | minimal effective concentration [7] [µg/mL] | MIC [7] [µg/mL] | minimal effective concentration [8] [µg/mL] | MIC [8] [µg/mL] | minimal effective concentration [9] [µg/mL] | MIC [9] [µg/mL] | minimal effective concentration [10, 13] [µg/mL] | MIC [10, 14] [µg/mL] | minimal effective concentration [10, 15] [µg/mL] | MIC [10, 16] [µg/mL] | MIC [6, 17] [µg/mL] | minimal effective concentration [6, 18] [µg/mL] | other results
1 | CC[C@H](C)[C@@H]1NC(=O)[C@@H]2CCCN2C(=O)[C@H](Cc2cccc(-c3cnc(N4CCC(C)CC4)cn3)c2)N(C)C(=O)[C@H](Cc2ccccc2)NC(=O)[C@H](C(C)C)N(C)C(=O)[C@@H]([C@@H](C)CC)OC(=O)[C@H](C(C)(C)O)N(C)C(=O)[C@H](CC(C)C)NC(=O)[C@H](C(C)C)N(C)C1=O [Compound 11] (cyclo(F[X26]PI[NMeV]L[NMeVal(β-OH)][Hmp(2R,3S)][NMeV])) | 0.06 | 0.25 | 0.25 | 1 (≈ 0.783 µM) | 1 | > 64 | 2 | > 64 | 0.5 | > 64 | 2 | > 64 | 0.5 | 0.5 | 8 | > 64 | 4 | > 64 |  |  | MEC [6, 12]: 8 µg/mL; MIC [6, 12]: 64 µg/mL
2 | CC[C@H](C)[C@@H]1NC(=O)[C@@H]2CCCN2C(=O)[C@H](Cc2cccc(-c3cnn(C4CCCC4)c3)c2)N(C)C(=O)[C@H](Cc2ccccc2)NC(=O)[C@H](C(C)C)N(C)C(=O)[C@@H]([C@@H](C)CC)OC(=O)[C@H](C(C)(C)O)N(C)C(=O)[C@H](CC(C)C)NC(=O)[C@H](C(C)C)N(C)C1=O [Compound 12] (cyclo(F[X20]PI[NMeV]L[NMeVal(β-OH)][Hmp(2R,3S)][NMeV])) | 0.03 | 0.5 | 0.12 | 1 (≈ 0.809 µM) | > 64 | > 64 | > 64 | > 64 | > 64 | > 64 | > 64 | > 64 | > 64 | > 64 | > 64 | > 64 | > 64 | > 64 | > 64 | > 64 | 
3 | CC[C@H](C)[C@@H]1NC(=O)[C@@H]2CCCN2C(=O)[C@H](Cc2cccc(-c3ccnc(C(C)C)c3)c2)N(C)C(=O)[C@H](Cc2ccccc2)NC(=O)[C@H](C(C)C)N(C)C(=O)[C@@H]([C@@H](C)CC)OC(=O)[C@H](C(C)(C)O)N(C)C(=O)[C@H](CC(C)C)NC(=O)[C@H](C(C)C)N(C)C1=O [Compound 16] (cyclo(F[X16]PI[NMeV]L[NMeVal(β-OH)][Hmp(2R,3S)][NMeV])) | 0.03 | 0.12 | 0.12 | 1 (≈ 0.819 µM) | 0.5 | 1 | 2 | > 64 | 1 | > 64 | 2 | > 64 | 0.5 | 0.5 | 2 | > 64 | 2 | > 64 | > 64 | 2 | 
4 | CC[C@H](C)[C@@H]1NC(=O)[C@@H]2CCCN2C(=O)[C@H](Cc2cccc(-c3ccc4ccncc4c3)c2)N(C)C(=O)[C@H](Cc2ccccc2)NC(=O)[C@H](C(C)C)N(C)C(=O)[C@@H]([C@@H](C)CC)OC(=O)[C@H](C(C)(C)O)N(C)C(=O)[C@H](CC(C)C)NC(=O)[C@H](C(C)C)N(C)C1=O [Compound 17] (cyclo(F[X18]PI[NMeV]L[NMeVal(β-OH)][Hmp(2R,3S)][NMeV])) | 0.015 | 0.25 | 0.06 | 1 (≈ 0.814 µM) | 0.12 | 0.5 | > 64 | > 64 | > 64 | > 64 | > 64 | > 64 | 0.06 | 0.12 | > 64 | > 64 | > 64 | > 64 | > 64 | > 64 | 
5 | CCC(C)[C@@H]1NC(=O)[C@@H]2CCCN2C(=O)[C@H](Cc2cccc(-c3ccc4ncccc4c3)c2)N(C)C(=O)[C@H](Cc2ccccc2)NC(=O)[C@H](C(C)C)N(C)C(=O)[C@@H](C(C)CC)OC(=O)[C@H](C(C)(C)O)N(C)C(=O)[C@H](CC(C)C)NC(=O)[C@H](C(C)C)N(C)C1=O (stereo partly drawn) [Compound 18] (cyclo(F[X14]P[Ile(3ξ)][NMeV]L[NMeVal(β-OH)][X6][NMeV])) | 0.03 | 0.25 | 0.12 | 1 (≈ 0.814 µM) | 0.25 | 0.5 | > 64 | > 64 |  | > 64 | > 64 | > 64 | 0.06 | 0.25 | > 64 | > 64 | > 64 | > 64 | > 64 | > 64 | 
6 | CC[C@H](C)[C@@H]1NC(=O)[C@@H]2CCCN2C(=O)[C@H](Cc2cccc(-c3ccnc(N4CCOCC4)c3)c2)N(C)C(=O)[C@H](Cc2ccccc2)NC(=O)[C@H](C(C)C)N(C)C(=O)[C@@H]([C@@H](C)CC)OC(=O)[C@H](C(C)(C)O)N(C)C(=O)[C@H](CC(C)C)NC(=O)[C@H](C(C)C)N(C)C1=O [Compound 21] (cyclo(F[X24]PI[NMeV]L[NMeVal(β-OH)][Hmp(2R,3S)][NMeV])) | 0.015 | 0.25 | 0.06 | 1 (≈ 0.791 µM) | 0.25 | > 64 | > 64 | > 64 | > 64 | > 64 | > 64 | > 64 | 0.06 | 0.25 | > 64 | > 64 | > 64 | > 64 | > 64 | > 64 | 
